The source of these data is patent publication US11166926B2 (priority 2018, dated 2021).

≈ marks a conversion by molar mass, not a printed value. Where “and” joins values, the source holds several entries; their conditions need not be identical. Equal entries are not always repeated. Where two headings read alike, the source gives them in different places.

The test system of series [1] is C. difficile. Put plainly: microbe, parasite or virus in culture. Type of series: cell-based.
Series [2] deals with C. clostridioforme ATCC25537. In words: organism not typed. Type of series: cell-based.
Series [3] has as its system C. sporogenes ATCC3584. Put plainly: microbe, parasite or virus in culture. As to conditions: Clostridium sporogenes. It is filed as cell-based.
In series [4] the target is TcdB027 (Clostridioides difficile, UniProt A0A9R0CDJ3). It is filed as cell-based, C. difficile.
The target in series [5] is T1, TcdA (Clostridioides difficile, UniProt P16154).
T1 construct: made in house; host or cells: Bacillus megaterium (the general sentence on recombinant toxins)
Put plainly: cell-based. The conditions noted are these: for IC50: IC50 TcdA, means ± s.d. It is filed as cell-based, C. difficile.

The subject of series [6] is CaCo-2 cells. Put plainly: CaCo-2 monolayer integrity / trans-epithelial resistance after TcdB. Type of series: cell-based, human.
Series [7] relates to C. difficile. Type of series: in vivo, mice.
The conditions of series [8]: rats; cited from earlier work.
Series [9] has as its target T2, TcdB (Clostridioides difficile, UniProt P18177). In words: cell-based. The conditions noted are these: for inhibition at 40 µM: IMR-90, read-out: inhibition of TcdB-induced cell rounding. Further details: species or system C. difficile.
Target sequence in this assay (P18177 2-2366 limits assumed): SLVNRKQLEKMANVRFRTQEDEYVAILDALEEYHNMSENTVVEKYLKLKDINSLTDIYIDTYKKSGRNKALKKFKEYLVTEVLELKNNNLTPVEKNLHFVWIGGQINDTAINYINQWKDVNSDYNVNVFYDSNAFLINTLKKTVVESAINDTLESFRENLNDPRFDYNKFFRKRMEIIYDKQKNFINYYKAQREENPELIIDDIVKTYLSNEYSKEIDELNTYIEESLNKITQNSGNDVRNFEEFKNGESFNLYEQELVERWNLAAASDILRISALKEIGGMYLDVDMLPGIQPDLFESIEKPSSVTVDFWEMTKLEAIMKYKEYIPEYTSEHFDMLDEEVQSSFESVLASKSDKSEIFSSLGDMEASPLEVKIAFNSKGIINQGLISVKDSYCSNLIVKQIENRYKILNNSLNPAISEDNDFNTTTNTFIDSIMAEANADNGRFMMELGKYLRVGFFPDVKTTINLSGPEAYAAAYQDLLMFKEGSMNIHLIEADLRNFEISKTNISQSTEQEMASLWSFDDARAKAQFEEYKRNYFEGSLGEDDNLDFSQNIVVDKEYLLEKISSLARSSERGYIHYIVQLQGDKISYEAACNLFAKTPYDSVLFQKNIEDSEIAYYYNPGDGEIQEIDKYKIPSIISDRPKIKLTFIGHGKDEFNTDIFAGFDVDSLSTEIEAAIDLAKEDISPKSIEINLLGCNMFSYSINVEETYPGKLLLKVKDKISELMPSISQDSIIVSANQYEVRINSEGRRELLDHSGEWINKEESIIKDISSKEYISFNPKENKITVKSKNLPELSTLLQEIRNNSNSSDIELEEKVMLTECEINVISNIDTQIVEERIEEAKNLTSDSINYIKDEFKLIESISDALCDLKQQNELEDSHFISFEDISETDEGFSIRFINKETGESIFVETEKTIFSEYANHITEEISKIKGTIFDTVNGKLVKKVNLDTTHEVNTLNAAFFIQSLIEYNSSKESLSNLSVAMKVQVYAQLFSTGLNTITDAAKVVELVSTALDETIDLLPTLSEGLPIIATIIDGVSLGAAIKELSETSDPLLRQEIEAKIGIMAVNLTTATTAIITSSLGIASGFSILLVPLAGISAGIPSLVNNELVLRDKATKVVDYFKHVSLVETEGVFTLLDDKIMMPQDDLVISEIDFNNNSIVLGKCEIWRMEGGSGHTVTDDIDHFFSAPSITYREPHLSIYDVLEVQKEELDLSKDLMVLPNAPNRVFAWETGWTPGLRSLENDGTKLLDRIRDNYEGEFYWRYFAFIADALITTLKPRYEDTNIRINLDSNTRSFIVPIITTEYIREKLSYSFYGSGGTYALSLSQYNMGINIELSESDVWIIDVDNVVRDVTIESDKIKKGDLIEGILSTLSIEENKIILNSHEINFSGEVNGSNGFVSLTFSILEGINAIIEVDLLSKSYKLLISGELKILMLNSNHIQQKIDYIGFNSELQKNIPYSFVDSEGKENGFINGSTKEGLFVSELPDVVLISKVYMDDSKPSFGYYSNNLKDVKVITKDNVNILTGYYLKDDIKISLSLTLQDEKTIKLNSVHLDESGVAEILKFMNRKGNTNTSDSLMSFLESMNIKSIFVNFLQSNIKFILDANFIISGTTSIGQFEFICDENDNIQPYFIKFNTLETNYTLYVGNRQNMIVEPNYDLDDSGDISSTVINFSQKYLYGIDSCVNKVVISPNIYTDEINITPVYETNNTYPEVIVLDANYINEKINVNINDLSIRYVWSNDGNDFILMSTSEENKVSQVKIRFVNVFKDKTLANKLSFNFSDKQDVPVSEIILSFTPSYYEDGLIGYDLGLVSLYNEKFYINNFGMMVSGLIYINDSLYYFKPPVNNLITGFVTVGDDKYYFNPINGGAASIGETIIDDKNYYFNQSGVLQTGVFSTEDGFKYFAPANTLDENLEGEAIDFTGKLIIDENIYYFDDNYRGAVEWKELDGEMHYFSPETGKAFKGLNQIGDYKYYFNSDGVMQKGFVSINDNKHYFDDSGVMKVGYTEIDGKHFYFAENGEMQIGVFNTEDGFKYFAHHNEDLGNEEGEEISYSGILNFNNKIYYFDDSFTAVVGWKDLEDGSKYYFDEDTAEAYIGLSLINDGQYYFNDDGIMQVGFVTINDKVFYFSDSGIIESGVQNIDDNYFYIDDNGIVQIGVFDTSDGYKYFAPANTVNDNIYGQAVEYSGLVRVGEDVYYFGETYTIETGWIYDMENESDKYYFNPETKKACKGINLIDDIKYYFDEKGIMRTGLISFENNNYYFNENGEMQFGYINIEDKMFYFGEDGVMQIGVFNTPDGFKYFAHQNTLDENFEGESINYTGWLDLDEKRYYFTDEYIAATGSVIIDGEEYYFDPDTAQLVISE
Series [10] concerns Rac1 glucosylation. In words: Intracellular Rac1 glucosylation Western blot. It is filed as cell-based, human. The conditions noted are these: IMR-90 cells, niclosamide 15 min then TcdB, harvested 1 h later. As for the experimental part:
(§1) FIG. 2. […] (a) Representative Western blot image for intracellular Rac1 glucosylation. […] Cells were harvested in lysis buffer 1 h later and processed for Western blot as described in Online Methods. […] (b) In vitro GTD glucosyltransferase assay. […] Activity was measured as described in the Online Methods. (c) In vitro auto-processing assay.
For orientation: In western blotting, separated proteins are transferred to a membrane and probed.

The target of series [11] is T3, TcdB glucosyltransferase domain (GTD) (Clostridioides difficile, UniProt P18177).
T3 construct: The TcdB glucosyltransferase domain (GTD); made in house
Put plainly: In vitro GTD glucosyltransferase assay. Type of series: biochemical, C. difficile. The conditions noted are these: up to 10 μM niclosamide, n=3. Here is the method:
as §1
For each reaction containing 10 nM GTD and 25 μM UDP-glucose, compound was added (1% final DMSO) and preincubated 30 minutes, followed by addition of gstRac1 to 0.8 μM. The reaction was stopped after a 60 min reaction time with an equal volume of Laemmli loading buffer plus β-mercaptoethanol (Bio-Rad, Mississauga. ON), heated to 90° C. before immediately loading on an SDS polyacrylamide gel. […]
Reactions were started with the simultaneous addition of 2.5 μl each of GST-Rac1 (20 μM final) and a mixture of 0.5 μCi of UDP-[6 ^3H]-glucose (0.5 μM final) and cold UDP-glucose (19.5 μM final). […] The beads were allowed to settle overnight at room temperature to increase the signal to background ratio before being analyzed on a TopCount NXT scintillation counter (PerkinElmer). Results were analyzed using GraphPad Prism 5.0.
Experiments were performed as per the manufacturer's instructions. […] Results were analyzed with SoftMax Pro 6.2.2 and GraphPad Prism 5.0.

The target in series [12] is T4, TcdB APD domain (Clostridioides difficile, UniProt P18177).
T4 construct: Cell lysates were prepared as described for full-length TcdB; made in house; host or cells: Bacillus megaterium
Put plainly: In vitro inositol hexakisphosphate-induced autoprocessing (cysteine protease) assay. It is filed as biochemical, C. difficile. As to conditions: up to 10 μM niclosamide. The text has this:
Cleavage was visualized by electrophoresing the samples on SDS polyacrylamide gels and staining with Coomassie Blue R250.

In series [13] the test system is IMR90 cells. Put plainly: Lysotracker assay, endosomal pH neutralization. It is filed as cell-based, human. As to conditions: pre-treating cells. Here is the method:
Endosomal pH neutralization was assayed essentially as described by Slater et al. (55); IMR90 cells in complete EMEM were plated at 14,000 cells/well (˜95% confluency). After 24 h the media was changed to SFM for 60 minutes, then compound was added to 40 μM and incubated at 37° C. for 2 h. Lysotracker red DND-99 and Hoechst (Life Technologies) were added to 0.1 μM and 1 μM, respectively, and incubated for 60 minutes. Excess dye was removed by media change and the fluorescence at ex/em 574/594 was read on an Envision plate reader (Perkin Elmer). Representative cell images were taken using a Zeiss Axiovert fluorescence microscope using DAPI and Texas Red filters to visualize the Hoechst and Lysotracker staining, respectively.

The target of series [14] is T2, TcdB.
Target sequence in this assay (P18177 2-2366 limits assumed): as above
Description: Loss of cellular ATP as a marker of high dose (1 nM) TcdB toxicity was measured as described for the Arrayscan screen protocol, except that CellTiter-Glo reagent (Promega, Madison, Wis.) was added to the cells 3 h post toxin challenge, and luminescence was recorded on a Spectramax M5 plate reader.
Series [15] deals with T2, TcdB. As to conditions: mammalian cells expressing all three known receptors.
Target sequence in this assay (P18177 2-2366 limits assumed): as above
Description: TcdB binding to Vero cells was assessed as described earlier with minor modifications(57). […] Mixtures were then added to confluent cultures of pre-chilled Vero cells and plates were incubated on ice for 45 min. Plates were then washed 3 times with cold PBS and harvested by scraping. Membranes were isolated, and samples analyzed by Western blot as previously described (57).
Series [16] has as its target T2, TcdB. This is another data set of the same source.
Description: TcdB protein was diluted in phosphate buffer (100 mM KPO4, 150 mM NaCl, pH 7) containing 5×SYPRO Orange (Invitrogen, Burlington, ON) and a serial dilution of test compound. A Biorad CFX96 qRT-PCR thermocycler was used to establish a temperature gradient from 15° C. to 95° C. in 30 s increments, while simultaneously recording the increase in SYPRO Orange fluorescence as a consequence of binding to hydrophobic regions exposed on unfolded proteins. The Bio-Rad CFX Manager 3.1 software was used to integrate the fluorescence curves to calculate the melting point.
The target of series [17] is T5, CDT (Clostridioides difficile, UniProt A0A9R0BM17+A0A9R0BM20).
T5 sequence (A0A9R0BM17 210-876): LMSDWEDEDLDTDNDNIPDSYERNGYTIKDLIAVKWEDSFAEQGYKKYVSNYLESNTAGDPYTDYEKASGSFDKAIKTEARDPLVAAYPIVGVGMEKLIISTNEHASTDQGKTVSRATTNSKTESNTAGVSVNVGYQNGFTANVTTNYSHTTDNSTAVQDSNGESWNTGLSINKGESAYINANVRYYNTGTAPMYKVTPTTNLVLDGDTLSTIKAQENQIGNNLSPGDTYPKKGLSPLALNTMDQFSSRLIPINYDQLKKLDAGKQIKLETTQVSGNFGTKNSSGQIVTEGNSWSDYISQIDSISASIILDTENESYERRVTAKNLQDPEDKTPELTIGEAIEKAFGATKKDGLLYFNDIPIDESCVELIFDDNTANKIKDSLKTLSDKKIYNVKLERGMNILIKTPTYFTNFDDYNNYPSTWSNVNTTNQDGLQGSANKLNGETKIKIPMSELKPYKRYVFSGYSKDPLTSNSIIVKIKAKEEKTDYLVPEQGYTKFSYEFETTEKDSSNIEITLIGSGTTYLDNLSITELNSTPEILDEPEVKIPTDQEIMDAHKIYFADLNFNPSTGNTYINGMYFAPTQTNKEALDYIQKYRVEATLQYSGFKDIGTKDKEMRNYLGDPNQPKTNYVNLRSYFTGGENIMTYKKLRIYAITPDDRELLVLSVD
T5 sequence (A0A9R0BM20 44-463): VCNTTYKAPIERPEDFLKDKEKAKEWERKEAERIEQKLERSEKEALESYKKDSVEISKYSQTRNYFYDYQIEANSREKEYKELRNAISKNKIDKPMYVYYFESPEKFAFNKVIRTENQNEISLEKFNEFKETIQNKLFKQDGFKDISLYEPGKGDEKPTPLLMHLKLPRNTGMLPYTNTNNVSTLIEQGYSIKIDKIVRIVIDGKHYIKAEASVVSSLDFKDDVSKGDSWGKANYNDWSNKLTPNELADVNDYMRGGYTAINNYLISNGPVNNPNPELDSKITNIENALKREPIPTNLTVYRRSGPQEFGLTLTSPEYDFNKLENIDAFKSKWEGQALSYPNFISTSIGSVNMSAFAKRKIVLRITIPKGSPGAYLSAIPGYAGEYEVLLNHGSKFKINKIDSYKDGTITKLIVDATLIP
In words: Inhibition of C. difficile toxin-induced cytotoxicity, CDT (actin depolymerization). The conditions noted are these: same doses that protect cells from TcdB.
Description: Cells were stained with 1 uM Hoechst for 30 min, then combined photos were taken for each compound at a concentration corresponding to maximum protection from TcdB using a 10× objective and appropriate filter sets for Hoechst and Alexa488 fluorescence (Zeiss).

In series [18] the test system is C. difficile. Put plainly: microbe, parasite or virus in culture. It is filed as cell-based. The source holds these as a separate data set.

T1 sequence (P16154 whole entry, looked up): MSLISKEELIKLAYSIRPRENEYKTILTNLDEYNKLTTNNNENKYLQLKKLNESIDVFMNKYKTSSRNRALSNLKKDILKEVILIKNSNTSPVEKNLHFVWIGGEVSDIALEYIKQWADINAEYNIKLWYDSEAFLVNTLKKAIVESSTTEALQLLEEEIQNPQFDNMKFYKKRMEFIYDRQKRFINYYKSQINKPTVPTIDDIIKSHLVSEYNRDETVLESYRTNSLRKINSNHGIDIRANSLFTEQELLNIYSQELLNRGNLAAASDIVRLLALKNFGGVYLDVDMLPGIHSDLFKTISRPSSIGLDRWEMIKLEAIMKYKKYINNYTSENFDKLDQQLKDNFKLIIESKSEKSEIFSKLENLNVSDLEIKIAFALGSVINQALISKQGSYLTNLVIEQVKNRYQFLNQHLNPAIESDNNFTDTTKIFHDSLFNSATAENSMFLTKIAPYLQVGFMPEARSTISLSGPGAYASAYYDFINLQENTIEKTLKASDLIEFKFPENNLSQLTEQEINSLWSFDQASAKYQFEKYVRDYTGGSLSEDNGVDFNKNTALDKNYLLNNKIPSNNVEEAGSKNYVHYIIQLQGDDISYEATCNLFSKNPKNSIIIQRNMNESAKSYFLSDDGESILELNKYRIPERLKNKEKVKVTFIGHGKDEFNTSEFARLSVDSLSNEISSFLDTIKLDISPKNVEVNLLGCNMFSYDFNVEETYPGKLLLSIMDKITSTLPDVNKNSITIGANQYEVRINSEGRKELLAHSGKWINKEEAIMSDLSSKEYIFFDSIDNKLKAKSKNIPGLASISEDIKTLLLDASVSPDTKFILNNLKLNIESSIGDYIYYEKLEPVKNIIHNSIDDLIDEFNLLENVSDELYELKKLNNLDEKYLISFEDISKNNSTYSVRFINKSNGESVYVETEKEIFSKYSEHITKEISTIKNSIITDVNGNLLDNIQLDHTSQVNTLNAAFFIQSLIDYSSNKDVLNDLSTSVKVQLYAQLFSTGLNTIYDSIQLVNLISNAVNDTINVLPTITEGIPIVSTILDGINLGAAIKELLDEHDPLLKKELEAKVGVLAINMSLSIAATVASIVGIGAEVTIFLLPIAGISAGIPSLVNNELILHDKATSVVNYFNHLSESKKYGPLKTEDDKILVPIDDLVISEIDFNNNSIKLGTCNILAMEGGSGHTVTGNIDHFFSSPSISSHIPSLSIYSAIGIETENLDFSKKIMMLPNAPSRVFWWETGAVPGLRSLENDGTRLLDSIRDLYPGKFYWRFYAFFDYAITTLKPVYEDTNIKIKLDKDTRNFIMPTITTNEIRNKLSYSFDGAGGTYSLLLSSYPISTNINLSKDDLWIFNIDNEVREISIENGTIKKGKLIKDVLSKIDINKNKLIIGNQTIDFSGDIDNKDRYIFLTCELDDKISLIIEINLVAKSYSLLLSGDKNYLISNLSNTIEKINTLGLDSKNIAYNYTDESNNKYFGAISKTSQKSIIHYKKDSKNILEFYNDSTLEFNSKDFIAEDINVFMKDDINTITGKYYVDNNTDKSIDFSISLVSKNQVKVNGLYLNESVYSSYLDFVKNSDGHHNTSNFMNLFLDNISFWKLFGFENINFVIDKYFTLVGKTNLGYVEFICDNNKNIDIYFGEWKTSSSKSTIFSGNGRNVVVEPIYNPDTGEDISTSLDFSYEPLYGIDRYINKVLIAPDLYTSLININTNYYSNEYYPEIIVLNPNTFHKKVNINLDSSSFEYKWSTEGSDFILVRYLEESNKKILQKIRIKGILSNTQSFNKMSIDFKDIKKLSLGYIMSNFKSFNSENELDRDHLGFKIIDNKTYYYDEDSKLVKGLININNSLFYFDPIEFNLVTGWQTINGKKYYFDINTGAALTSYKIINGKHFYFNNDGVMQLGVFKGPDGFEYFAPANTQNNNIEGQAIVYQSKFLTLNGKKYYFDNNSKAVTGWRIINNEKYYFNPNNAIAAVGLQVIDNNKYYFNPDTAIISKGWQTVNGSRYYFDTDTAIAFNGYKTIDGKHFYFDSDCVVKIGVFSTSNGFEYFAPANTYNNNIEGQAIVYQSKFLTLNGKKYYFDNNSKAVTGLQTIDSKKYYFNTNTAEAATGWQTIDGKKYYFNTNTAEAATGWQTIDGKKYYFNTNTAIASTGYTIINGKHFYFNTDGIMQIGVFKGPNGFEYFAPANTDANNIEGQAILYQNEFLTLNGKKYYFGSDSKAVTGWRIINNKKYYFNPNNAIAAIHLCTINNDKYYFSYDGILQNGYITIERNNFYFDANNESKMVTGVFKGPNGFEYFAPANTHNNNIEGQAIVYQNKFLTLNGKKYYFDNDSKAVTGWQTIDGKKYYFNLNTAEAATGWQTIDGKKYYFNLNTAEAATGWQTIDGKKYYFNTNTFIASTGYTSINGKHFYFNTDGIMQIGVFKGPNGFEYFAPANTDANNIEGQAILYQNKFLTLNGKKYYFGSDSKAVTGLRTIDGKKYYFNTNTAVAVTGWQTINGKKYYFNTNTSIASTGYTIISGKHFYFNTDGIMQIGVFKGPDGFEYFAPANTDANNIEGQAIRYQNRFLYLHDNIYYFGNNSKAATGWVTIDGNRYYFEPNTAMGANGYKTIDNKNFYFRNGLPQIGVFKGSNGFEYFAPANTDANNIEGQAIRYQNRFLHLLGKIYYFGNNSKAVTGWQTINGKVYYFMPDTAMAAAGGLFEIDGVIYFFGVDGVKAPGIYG

As to `CN[C@H](CC(C)C)C(=O)N[C@H]1C(=O)N[C@@H](CC(N)=O)C(=O)N[C@H]2C(=O)N[C@H]3C(=O)N[C@H](C(=O)N[C@H](C(=O)O)c4cc(O)cc(O)c4-c4cc3ccc4O)[C@H](O)c3ccc(c(Cl)c3)Oc3cc2cc(c3O[C@@H]2O[C@H](CO)[C@@H](O)[C@H](O)[C@H]2O[C@H]2C[C@](C)(N)[C@H](O)[C@H](C)O2)Oc2ccc(cc2Cl)[C@H]1O` [Vancomycin], the MIC in series [1] is 2 µg/mL (≈ 1.38 µM); in series [1] (Clostridioides difficile) it was 1 µg/mL (≈ 0.69 µM); in [2] it was 4 µg/mL (≈ 2.76 µM); in series [3], 8 µg/mL (≈ 5.52 µM).
Take `O=C(Nc1ccc([N+](=O)[O-])cc1Cl)c1cc(Cl)ccc1O` [NEN, niclosamide ethanolamine]: the “protection against TcdB derived from hypervirulent strains” value in series [4] is reported as “protected”. In series [5], 550 ± 80 nM corresponded to half-maximal inhibition (IC50). In addition, the “TEER assay, dose dependence” value in series [6] (Caco-2 cell monolayers) is recorded as “dose-dependently protects”. Further, in series [7] (NEN 50 mg/kg), the survival of recurrence result is reported as “all NEN-treated mice survived recurrence”. For the same compound, the “survival from C. difficile challenge” value in [7] (NEN 50 mg/kg oral gavage, vancomycin 0.5 mg/mL in drinking water, more than 60% of control moribund) is reported as “all mice in the NEN group survived”. Further, the “diarrhea scores at recurrence” value in [7] (mouse, in vivo) is listed as “less severe diarrhea scores”. Also, the MIC in [2] and in [3] was over 19 µg/mL throughout. The “median oral lethal dose (LD50)” value in series [8] is reported as 10,000 mg/kg body weight.
`Cc1cc(C(C#N)c2ccc(Cl)cc2)c(Cl)cc1NC(=O)c1cc(I)cc(I)c1O` (stereo not shown) [closantel]: the “inhibition of TcdB-induced cell rounding” value in [9] (high-throughput screen, libraries screened at 40 μM, IMR90 cells) was determined as 60%.
In the case of `O=C(Nc1ccc([N+](=O)[O-])cc1Cl)c1cc(Cl)ccc1O` [niclosamide], the inhibition (usually the share of the control response that was lost under treatment) at 40 µM in series [9] was 71%. The “Protection from TcdB-induced cell-rounding (extent)” value in [9] (human IMR-90 fibroblasts co-incubated with niclosamide and TcdB) is given as “complete”. Besides, in [5], the “protection from TcdA-induced cell rounding” value is recorded as “completely protected” and the IC50 – broadly, the concentration needed to halve the response being measured – worked out at 500 ± 100 nM. In addition, the “TcdB-induced reduction in Phalloidin staining” value in [6] (Caco-2 cells) was “prevented”. Also, in series [6] (co-treatment with TcdB, confluent CaCo-2 monolayer), the “TcdB-induced disruption of monolayer integrity” value is recorded as “prevented”. Also, the “Rac1 glucosylation in cells” value in [10] is on record as “dose-dependently inhibits”. Moreover, the “inhibition of GTD enzymatic activity in vitro” value in series [11] is “no direct inhibition”. In addition, the “Release of GTD by the APD domain (autoprocessing)” value in series [12] is “unaffected”. The “Lysotracker fluorescent staining (endosomal pH)” value in series [13] is on record as “reduces Lysotracker fluorescent staining”. The TcdB-induced necrosis result in [14] is reported as “inhibited”. In addition, in [15], the “TcdB binding to the cell surface” value is “did not affect”. In addition, the “direct binding interaction with TcdB (thermal stability)” value in series [16] was “no evidence for a direct binding interaction”. Also, the “protection from CDT-induced damage (depolymerization of the actin cytoskeleton)” value in series [17] is on record as “completely protected”.
Consider `O=C(Nc1cc(Cl)cc(Cl)c1O)c1c(O)c(Cl)cc(Cl)c1Cl` [oxyclozanide], for which, in series [9], the inhibition at 40 µM came to 43%.
Take `CCc1c(Cl)c(O)c(Cl)c(O)c1C(=O)O[C@H]1[C@H](O)[C@H](OC)[C@H](OC/C2=C\C=C\C[C@H](O)/C(C)=C/[C@H](CC)[C@@H](O[C@@H]3OC(C)(C)[C@@H](OC(=O)C(C)C)[C@H](O)[C@@H]3O)/C(C)=C/C(C)=C/C[C@@H]([C@@H](C)O)OC2=O)O[C@@H]1C` [Fidaxomicin]: the MIC in [18] is 0.06 μg/mL and 0.06^4 μg/mL; in series [18] (Clostridioides difficile) it was 0.12 µg/mL (≈ 0.113 µM).
